Test results: patent publication US20220073541A1, “SILICON ION COMPLEX ORGANIZED WITH CARBOXYLIC ACID, METHOD FOR MANUFACTURING COMPLEX, AND PRODUCT USING SAME” (KOREA NEW TECHNOLOGY CO.,LTD., priority 2019, published 2022)

Assay: Metasilicate dissolution experiment (gastric acid conditions, pH 1.5)
Type: physicochemical
Method: A dissolution experiment was performed using sodium metasilicate nonahydrate (Na2SiO3.9H2O).
(2) The pH of the solution was lowered to pH 1.5 using 37% hydrochloric acid and measured again.
(1) 150 ml of water was added in a 250 ml beaker, adjusted in pH to a value of 1.5 with 37% hydrochloric acid to meet the standards for gastric acid of the human body, and combined with another water to a volume of 250 ml.
(2) 1 g of metasilicate nonahydrate (Na2SiO3.9H2O) was added to the solution of step (1).

SMILES	pH of solution in pure water (1 g in 500 ml pure water)	behaviour of dissolved silicate after lowering pH (1 g in 500 ml pure water, pH lowered to 1.5 using 37% hydrochloric acid)	dissolution of silicate added to acidic water (1 g added to 250 ml water at pH 1.5 (37% hydrochloric acid))
O.O.O.O.O.O.O.O.O.O=[Si]([O-])[O-].[Na+].[Na+] [Comparative Example 1, sodium metasilicate nonahydrate (Na2SiO3.9H2O)]	12.23	gelled while agglomerating	
O.O.O.O.O.O.O.O.O.O=[Si]([O-])[O-].[Na+].[Na+] [Comparative Example 2, metasilicate nonahydrate (Na2SiO3.9H2O)]			precipitated rather than dissolved
